Experimental data from PubChem BioAssay AID1259407 (Chemical Carcinogenesis Research Information System (CCRIS), 2018).
The source made the active and inactive calls. No rule for the calls is given here.

Tested on: CCRIS mutagenicity, Ames/micronucleus/aberration tests
Assay: CCRIS mutagenicity studies
[1] = Test System: AMES SALMONELLA TYPHIMURIUM, Strain/Indicator: TA1535, Metabolic Activation: NONE, Method: PREINCUBATION
[2] = Test System: AMES SALMONELLA TYPHIMURIUM, Strain/Indicator: TA98, Metabolic Activation: NONE, Method: PREINCUBATION
[3] = Test System: AMES SALMONELLA TYPHIMURIUM, Strain/Indicator: TA100, Metabolic Activation: NONE, Method: PREINCUBATION
[4] = Test System: AMES SALMONELLA TYPHIMURIUM, Strain/Indicator: TA98, Metabolic Activation: NONE, Method: STANDARD PLATE
[5] = Test System: AMES SALMONELLA TYPHIMURIUM, Strain/Indicator: TA100, Metabolic Activation: NONE, Method: STANDARD PLATE

Question: Which results are given for `C[n+]1c2ccccc2cc2ccccc21`?
Answer: mutagenic call [1]: inactive; negative; mutagenic call (Test System: AMES SALMONELLA TYPHIMURIUM, Strain/Indicator: TA1535, Metabolic Activation: RAT, LIVER, S-9, TETRACHLOROBIPHENYL, Method: PREINCUBATION): inactive; negative; mutagenic call (Test System: AMES SALMONELLA TYPHIMURIUM, Strain/Indicator: TA1537, Metabolic Activation: NONE, Method: PREINCUBATION): inactive; negative; mutagenic call (Test System: AMES SALMONELLA TYPHIMURIUM, Strain/Indicator: TA1537, Metabolic Activation: RAT, LIVER, S-9, TETRACHLOROBIPHENYL, Method: PREINCUBATION): active; positive; mutagenic call (Test System: AMES SALMONELLA TYPHIMURIUM, Strain/Indicator: TA1538, Metabolic Activation: NONE, Method: PREINCUBATION): inactive; negative; mutagenic call (Test System: AMES SALMONELLA TYPHIMURIUM, Strain/Indicator: TA1538, Metabolic Activation: RAT, LIVER, S-9, TETRACHLOROBIPHENYL, Method: PREINCUBATION): active; positive; mutagenic call (Test System: AMES SALMONELLA TYPHIMURIUM, Strain/Indicator: TA1978, Metabolic Activation: RAT, LIVER, S-9, TETRACHLOROBIPHENYL, Method: PREINCUBATION): inactive; negative

Question: How did the mutagenic call (Test System: AMES SALMONELLA TYPHIMURIUM, Strain/Indicator: TA97, Metabolic Activation: HAMSTER, LIVER, S-9, AROCLOR 1254 (10 OR 30%), Method: PREINCUBATION) turn out when `Cc1ccccc1C#N` was run?
Answer: inactive; negative

Question: And the mutagenic call (Test System: AMES SALMONELLA TYPHIMURIUM, Strain/Indicator: TA97, Metabolic Activation: NONE, Method: PREINCUBATION)?
Answer: inactive; negative

Question: What about the mutagenic call (Test System: AMES SALMONELLA TYPHIMURIUM, Strain/Indicator: TA97, Metabolic Activation: RAT, LIVER, S-9, AROCLOR 1254 (10%), Method: PREINCUBATION) of the same compound?
Answer: inactive; negative

Question: What about the mutagenic call (Test System: AMES SALMONELLA TYPHIMURIUM, Strain/Indicator: TA97, Metabolic Activation: RAT, LIVER, S-9, AROCLOR 1254 (30%), Method: PREINCUBATION) of the same compound?
Answer: inactive; negative

Question: And the mutagenic call (Test System: AMES SALMONELLA TYPHIMURIUM, Strain/Indicator: TA98, Metabolic Activation: HAMSTER, LIVER, S-9, AROCLOR 1254 (10 OR 30%), Method: PREINCUBATION)?
Answer: inactive; negative

Question: And the mutagenic call [2]?
Answer: inactive; negative

Question: What about the mutagenic call (Test System: AMES SALMONELLA TYPHIMURIUM, Strain/Indicator: TA98, Metabolic Activation: RAT, LIVER, S-9, AROCLOR 1254 (10 OR 30%), Method: PREINCUBATION) of the same compound?
Answer: inactive; negative

Question: And the mutagenic call (Test System: AMES SALMONELLA TYPHIMURIUM, Strain/Indicator: TA100, Metabolic Activation: HAMSTER, LIVER, S-9, AROCLOR 1254 (10 OR 30%), Method: PREINCUBATION)?
Answer: inactive; negative

Question: What about the mutagenic call [3] of the same compound?
Answer: inactive; negative

Question: And the mutagenic call (Test System: AMES SALMONELLA TYPHIMURIUM, Strain/Indicator: TA100, Metabolic Activation: RAT, LIVER, S-9, AROCLOR 1254 (10%), Method: PREINCUBATION)?
Answer: inactive; negative

Question: And the mutagenic call (Test System: AMES SALMONELLA TYPHIMURIUM, Strain/Indicator: TA100, Metabolic Activation: RAT, LIVER, S-9, AROCLOR 1254 (30%), Method: PREINCUBATION)?
Answer: inactive; negative

Question: And the mutagenic call (Test System: AMES SALMONELLA TYPHIMURIUM, Strain/Indicator: TA1535, Metabolic Activation: HAMSTER, LIVER, S-9, AROCLOR 1254 (10 OR 30%), Method: PREINCUBATION)?
Answer: inactive; negative

Question: What about the mutagenic call [1] of the same compound?
Answer: inactive; negative

Question: And the mutagenic call (Test System: AMES SALMONELLA TYPHIMURIUM, Strain/Indicator: TA1535, Metabolic Activation: RAT, LIVER, S-9, AROCLOR 1254 (10%), Method: PREINCUBATION)?
Answer: inactive; negative

Question: What about the mutagenic call (Test System: AMES SALMONELLA TYPHIMURIUM, Strain/Indicator: TA1535, Metabolic Activation: RAT, LIVER, S-9, AROCLOR 1254 (30%), Method: PREINCUBATION) of the same compound?
Answer: inactive; negative

Question: And the mutagenic call (Test System: MOUSE LYMPHOMA, Strain/Indicator: L5178Y (TK+/TK-), Metabolic Activation: RAT, LIVER, S-9, AROCLOR 1254, Method: SUSPENSION/PLATE)?
Answer: active; positive. reevaluation of results: positive

Question: What about the mutagenic call (Test System: Mouse lymphoma, Strain/Indicator: L5178Y (tk+/tk-), Metabolic Activation: None, Method: Suspension/plate) of the same compound?
Answer: inactive; negative

Question: How did the mutagenic call (Test System: AMES SALMONELLA TYPHIMURIUM, Strain/Indicator: TA98, Metabolic Activation: MOUSE, LIVER, S-9, Method: STANDARD PLATE) turn out when `C=CCCCCCCCCCCC` was run?
Answer: inactive; negative

Question: And the mutagenic call [4]?
Answer: inactive; negative

Question: What about the mutagenic call (Test System: AMES SALMONELLA TYPHIMURIUM, Strain/Indicator: TA100, Metabolic Activation: MOUSE, LIVER, S-9, Method: STANDARD PLATE) of the same compound?
Answer: inactive; negative

Question: And the mutagenic call [5]?
Answer: inactive; negative

Question: And the mutagenic call (Test System: AMES SALMONELLA TYPHIMURIUM, Strain/Indicator: TA1535, Metabolic Activation: NONE, Method: STANDARD PLATE)?
Answer: inactive; negative

Question: And the mutagenic call (Test System: AMES SALMONELLA TYPHIMURIUM, Strain/Indicator: TA1538, Metabolic Activation: NONE, Method: STANDARD PLATE)?
Answer: inactive; negative

Question: Which results are given for `CC(=O)OCc1c(O)c(C(=O)O)c(C)c2c1OC(=O)c1c(C)cc(O)c(C=O)c1O2`?
Answer: mutagenic call [2]: inactive; negative; mutagenic call [4]: inactive; negative; mutagenic call (Test System: AMES SALMONELLA TYPHIMURIUM, Strain/Indicator: TA98, Metabolic Activation: RAT, LIVER, S-9, Method: PREINCUBATION): inactive; negative; mutagenic call (Test System: AMES SALMONELLA TYPHIMURIUM, Strain/Indicator: TA98, Metabolic Activation: RAT, LIVER, S-9, Method: STANDARD PLATE): inactive; negative; mutagenic call [3]: active; positive; mutagenic call [5]: inactive; negative; mutagenic call (Test System: AMES SALMONELLA TYPHIMURIUM, Strain/Indicator: TA100, Metabolic Activation: RAT, LIVER, S-9, Method: PREINCUBATION): active; positive; mutagenic call (Test System: AMES SALMONELLA TYPHIMURIUM, Strain/Indicator: TA100, Metabolic Activation: RAT, LIVER, S-9, Method: STANDARD PLATE): active; positive

Question: Which mutagenic call [2] does the source give for `CC(=O)OCc1cccc([N+](=O)[O-])c1` here?
Answer: inactive; negative

Question: And the mutagenic call [3]?
Answer: inactive; negative

Question: What about the mutagenic call (Test System: AMES SALMONELLA TYPHIMURIUM, Strain/Indicator: TA100, Metabolic Activation: RAT, LIVER, S-9, AROCLOR 1254, Method: PREINCUBATION) of the same compound?
Answer: inactive; negative

Question: What does the source list for `N[C@@H](CS/C=C/CCl)C(=O)O`?
Answer: mutagenic call [2]: inactive; negative; mutagenic call [3]: inactive; negative; mutagenic call (Test System: AMES SALMONELLA TYPHIMURIUM, Strain/Indicator: TA2638, Metabolic Activation: NONE, Method: PREINCUBATION): inactive; negative

Question: With `c1ccc2c(c1)ncc1cnc3ccccc3c12` as the compound, how does the mutagenic call [4] read?
Answer: inactive; negative

Question: What about the mutagenic call (Test System: AMES SALMONELLA TYPHIMURIUM, Strain/Indicator: TA98, Metabolic Activation: RAT LIVER S-9, AROCLOR 1254, Method: STANDARD PLATE) of the same compound?
Answer: inactive; negative

Question: And the mutagenic call (Test System: E.COLI, Strain/Indicator: WP2, Metabolic Activation: NONE, Method: SPOT TEST)?
Answer: inactive; negative

Question: What about the mutagenic call (Test System: E.COLI, Strain/Indicator: WP2 UVRA, Metabolic Activation: NONE, Method: STANDARD PLATE) of the same compound?
Answer: inactive; negative

Question: What about the mutagenic call (Test System: E.COLI, Strain/Indicator: WP2 UVRA, Metabolic Activation: R, L, S-9, AROCLOR 1254, Method: STANDARD PLATE) of the same compound?
Answer: inactive; negative

Question: What about the mutagenic call (Test System: ESCHERICHIA COLI, Strain/Indicator: WP2 UVR A, Metabolic Activation: NONE, Method: STANDARD PLATE) of the same compound?
Answer: inactive; negative

Question: And the mutagenic call (Test System: ESCHERICHIA COLI, Strain/Indicator: WP2 UVR A, Metabolic Activation: RAT LIVER S-9, AROCLOR 1254, Method: STANDARD PLATE)?
Answer: inactive; negative

Question: What does the source list for `CC(=O)OC(OC(C)=O)c1ccc([N+](=O)[O-])o1`?
Answer: mutagenic call (Test System: AMES SALMONELLA TYPHIMURIUM, Strain/Indicator: TA98(1,8-DNP6), Metabolic Activation: NONE, Method: STANDARD PLATE): active; positive; mutagenic call (Test System: AMES SALMONELLA TYPHIMURIUM, Strain/Indicator: TA98(1,8-DNP6), Metabolic Activation: RAT, LIVER, S-9, 3-METHYLCHOLANTHRENE, Method: STANDARD PLATE): active; positive; mutagenic call (Test System: AMES SALMONELLA TYPHIMURIUM, Strain/Indicator: TA98(NR), Metabolic Activation: NONE, Method: STANDARD PLATE): active; positive; mutagenic call (Test System: AMES SALMONELLA TYPHIMURIUM, Strain/Indicator: TA98(NR), Metabolic Activation: RAT, LIVER, S-9, 3-METHYLCHOLANTHRENE, Method: STANDARD PLATE): active; positive; mutagenic call [4]: active; positive; mutagenic call (Test System: AMES SALMONELLA TYPHIMURIUM, Strain/Indicator: TA98, Metabolic Activation: RAT, LIVER, S-9, 3-METHYLCHOLANTHRENE, Method: STANDARD PLATE): active; positive; mutagenic call (Test System: E. COLI, Strain/Indicator: WP2 UVRA, Metabolic Activation: NONE, Method: SPOT): active; positive
